These results are taken from article PMC4490768 (Cellular signalling, 2011).

Structures are written as SMILES.

As usually defined, the EC50 is the midpoint of the concentration-response curve. A higher EC50 goes with a need for much substance.

The test concerns the target T1, ALK2ca T283S (constitutively active ALK2) (Homo sapiens, UniProt Q04771, Q207D/T283S).
T1 sequence (Q04771 21-509 Q207D/T283S): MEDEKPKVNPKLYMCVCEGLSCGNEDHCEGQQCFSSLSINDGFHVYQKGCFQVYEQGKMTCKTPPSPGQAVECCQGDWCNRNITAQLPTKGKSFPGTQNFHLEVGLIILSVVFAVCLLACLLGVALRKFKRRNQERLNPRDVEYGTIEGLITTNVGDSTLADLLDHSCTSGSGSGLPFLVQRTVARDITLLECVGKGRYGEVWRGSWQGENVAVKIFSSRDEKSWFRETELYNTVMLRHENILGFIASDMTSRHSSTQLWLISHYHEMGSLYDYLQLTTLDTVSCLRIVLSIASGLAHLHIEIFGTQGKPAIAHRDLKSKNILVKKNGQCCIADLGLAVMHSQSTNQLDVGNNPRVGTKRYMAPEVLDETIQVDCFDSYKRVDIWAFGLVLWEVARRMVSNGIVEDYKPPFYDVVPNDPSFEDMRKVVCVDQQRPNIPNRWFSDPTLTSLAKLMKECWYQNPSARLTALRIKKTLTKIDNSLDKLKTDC
The test can be described thus: BRE2-luc luciferase reporter in NIH-3T3 cells expressing ALK2ca T283S. It counts as cell-based. A general note: A reporter such as luciferase makes a cellular process visible.

In turn, `NC(=O)c1ccc(-c2nc(-c3ccc4c(c3)OCO4)c(-c3ccccn3)[nH]2)cc1` [SB431542] came in with a concentration for a half-maximal effect (EC50) of 2500 nM.
